Experiments:
human PTP-1B = biological target: T1, human PTP-1B (Homo sapiens, UniProt P18031); assay: PTP-1B inhibitory activity in vitro (IC50); type: biochemical
T1 construct: recombinant human PTP-1B[1-298] or PTP-1B[1-322]
T1 sequence (P18031 1-298 limits assumed): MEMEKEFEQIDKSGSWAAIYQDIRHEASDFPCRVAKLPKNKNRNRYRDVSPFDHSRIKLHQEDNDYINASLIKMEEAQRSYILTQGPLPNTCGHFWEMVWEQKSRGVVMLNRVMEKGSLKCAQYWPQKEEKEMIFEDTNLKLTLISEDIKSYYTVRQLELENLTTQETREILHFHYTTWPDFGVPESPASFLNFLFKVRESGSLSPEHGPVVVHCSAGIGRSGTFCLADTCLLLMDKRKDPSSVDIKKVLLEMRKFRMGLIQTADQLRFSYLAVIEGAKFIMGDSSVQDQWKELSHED
Experimental: Assessment of human PTP-1B (hPTP-1B) activity in the presence of various agents is determined by measuring the amount of inorganic phosphate released from a phosphopeptide substrate using a 96-well microtiter plate format. The assay (100 μL) is performed in an assay buffer comprised of 50 mM TRIS (pH 7.5), 50 mM NaCl, 3 mM DTT at ambient temperature. The assay is typically performed in the presence of 0.4% dimethyl sulfoxide (DMSO). However, concentrations as high as 10% are used with certain poorly soluble compounds. […] Inorganic phosphate, a product of the enzyme reaction, is quantitiated after 15 min as the green color resulting from complexing with the Malichite reagent and is determined as an A620 using a Molecular Devices (Sunnyvale, Calif.) SpectraMAX Plus spectrophotometer. […] Activity is defined as the net change in absorbance resulting from the activity of the uninhibited hPTP-1B[1-411] minus that of a tube with acid-inactivated hPTP-1B[1-411]. […]
Alternatively, the assessment of human PTP-1B activity in the presence of various agents may be determined by measuring the hydrolysis products of known competing substrates. For example, cleavage of substrate para-nitrophenylphosphate (pNPP) results in the release of the yellow-colored para-nitrophenol (pNP) which can be monitored in real time using a spectrophotometer. […]

COc1cc2cc(N3CC(=O)NS3(=O)=O)c(O)cc2oc1=O [Example 70, 5-(7-Hydroxy-3-methoxy-2-oxo-2H-chromen-6-yl)-1,1-dioxo-1,2,5-thiadiazolidin-3-one]
melting point: 226 to 228 °C

O=C1CN(c2cc3cc(C4CCCC4)ccc3cc2O)S(=O)(=O)N1 [Example No. 22, 5-(7-Cyclopentyl-3-hydroxynaphthalen-2-yl)-1,1-dioxo-1,2,5-thiadiazolidin-3-one]
IC50 (human PTP-1B): 85 nM

O=C1CN(c2cc3cc(C4CCCCC4)ccc3cc2O)S(=O)(=O)N1 [Example No. 23, 5-(7-Cyclohexyl-3-hydroxynaphthalen-2-yl)-1,1-dioxo-1,2,5-thiadiazolidin-3-one]
IC50 (human PTP-1B): 113 nM
